Reference: paper PMC12055641, “The Study of Antistaphylococcal Potential of Omiganan and Retro-Omiganan Under Flow Conditions” (Probiotics and Antimicrobial Proteins, 2024)
No end group written: not given here.

Legend:
[1] = tested on: human keratinocytes (HaCaT); assay type: cell-based; settings: 24 h
Experimental: To evaluate the cytotoxicity of the peptides (IC50), the classic MTT assay on 96-well plates was performed for human keratinocytes (HaCaT) which were acquired from the ATCC. The assay utilizes colorimetric determination of the cell metabolic activity, and the color intensity reflects the number of live cells that can be measured spectrophotometrically. […] DMSO was added to the control cells at a final concentration of 1.0% (v/v), which was related to the maximum concentration of the solvent compounds used in the experiment. After 24 h of incubation at 37 °C (humidified 5% CO2 incubator) with the peptides, a medium containing 1 mg/mL of MTT was added to the wells up to a final concentration of 0.5 mg/mL. Subsequently, the plates were incubated at 37 °C for 4 h. Then, the medium was aspirated, and the formazan product was solubilized with DMSO. The background absorbance at 630 nm was subtracted from that at 570 nm for each well (Epoch, BioTek Instruments, USA). Six replicates were conducted for each concentration. All experiments were repeated at least twice and the resulting IC50 values were calculated with GraFit 7 software (v. 7.0, Erithacus, Berkley, CA, USA).

[2] = tested on: S. aureus ATCC 12598 biofilm; settings: ATCC 12598, reference strain
From the text: (§1) Clinical S. aureus strains were collected from patients with atopic dermatitis during their visits to the Outpatient Clinic and hospitalization in the Department of Dermatology, Venereology and Allergology at Medical University of Gdańsk (following the approval from the ethics committee, Approval Number NKBBN/242–477/2014). Reference strains of S. aureus ATCC 25923, S. aureus ATCC 33591, S. aureus ATCC 9144, and S. aureus ATCC 12598 were obtained from the American Type Culture Collection. All the strains were stored at − 80 °C in Roti®-Store cryo vials (Carl Roth GmbH, Karlsruhe, Germany) and before the tests were transferred into fresh Mueller–Hinton Medium (BioMaxima, Lublin, Poland) and incubated for 24 h at 37 °C. Subsequently, each bacterial inoculum was seeded on Mueller–Hinton agar plates (BioMaxima) and incubated again for 24 h. The cultures prepared in this way were used in further antimicrobial assays. Minimum inhibitory concentrations (MICs) were determined according to the Clinical and Laboratory Standards Institute recommendations. […] The experiments were conducted on 96-well microtiter plates, with a final volume of 100 μL. Additionally, in the case of daptomycin, the medium was supplemented with Ca^2+ (50 mg/L). Cell densities were adjusted spectrophotometrically (Multiskan™ GO Microplate Spectrophotometer, Thermo Scientific) at 600 nm. The MICs were taken as the lowest drug concentration at which a visible growth of the microorganisms was inhibited. Minimum biofilm eliminating concentrations (MBECs) were determined on 96-well flat-bottomed microtiter polystyrene plates with resazurin (7-hydroxy-3H-phenoxazin-3-one 10-oxide sodium salt) as a cell viability reagent. To do this, the plates were filled with 100 μL of the initial inoculums of bacteria (0.5 × 10^7 CFU/mL) in the Mueller–Hinton broth and incubated for 24 h at 37 °C. […] After 24 h of incubation, 20 μL of resazurin (4 mg/mL) was added to each well and the MBEC values were read. Minimum biofilm inhibitory concentrations (MBICs) were also determined on 96-well flat-bottomed microtiter polystyrene plates as described previously. To do this, 50 μL of the compounds in the concentration range, diluted MHB, were prepared. Subsequently, the 50 μL of the staphylococcal inoculums were added to reach the same density of bacteria as that in the MBEC assay. After 24 h of incubation at 37 °C, the wells were rinsed three times with PBS and the fresh medium (100 μL) with resazurin (0.6 mg/mL) was added. Then, after 1 h of incubation, MBICs were read. […] All experiments were conducted in triplicate.

[3] = tested on: S. aureus ATCC 12598; settings: ATCC 12598, reference strain
From the text: as §1

[4] = tested on: S. aureus ATCC 25923 biofilm; settings: ATCC 25923, reference strain
From the text: as §1

[5] = tested on: S. aureus ATCC 25923; settings: ATCC 25923, reference strain
From the text: as §1

[6] = tested on: S. aureus ATCC 33591 (MRSA) biofilm; settings: ATCC 33591, 24 h
From the text: as §1

[7] = tested on: S. aureus ATCC 33591 (MRSA); settings: ATCC 33591, 24 h
From the text: as §1

[8] = tested on: S. aureus ATCC 9144 biofilm; settings: ATCC 9144, reference strain
From the text: as §1

[9] = tested on: S. aureus ATCC 9144; settings: ATCC 9144, reference strain
From the text: as §1

[10] = tested on: S. aureus clinical strain 004N (MRSA) biofilm; settings: clinical strain 004N biofilm, 24 h
From the text: as §1

[11] = tested on: S. aureus clinical strain 004N (MRSA); settings: 24 h
From the text: as §1

[12] = tested on: S. aureus clinical strain 005S biofilm
From the text: as §1

[13] = tested on: S. aureus clinical strain 005S
From the text: as §1

[14] = tested on: S. aureus clinical strain 009S biofilm
From the text: as §1

[15] = tested on: S. aureus clinical strain 009S
From the text: as §1

[16] = tested on: S. aureus clinical strain 015N (MRSA) biofilm; settings: clinical strain 015N biofilm, 24 h
From the text: as §1

[17] = tested on: S. aureus clinical strain 015N (MRSA); settings: 24 h
From the text: as §1

[18] = tested on: S. aureus clinical strain 030N biofilm
From the text: as §1

[19] = tested on: S. aureus clinical strain 030N
From the text: as §1

[20] = tested on: S. aureus clinical strain 031S biofilm
From the text: as §1

[21] = tested on: S. aureus clinical strain 031S
From the text: as §1

[22] = tested on: S. aureus clinical strain 043SC (MRSA) biofilm; settings: clinical strain 043SC biofilm, 24 h
From the text: as §1

[23] = tested on: S. aureus clinical strain 043SC (MRSA); settings: 24 h
From the text: as §1

[24] = tested on: S. aureus clinical strain 051N (MRSA) biofilm; settings: clinical strain 051N biofilm, 24 h
From the text: as §1

[25] = tested on: S. aureus clinical strain 051N (MRSA); settings: 24 h
From the text: as §1

[26] = tested on: S. aureus clinical strain 060S biofilm
From the text: as §1

[27] = tested on: S. aureus clinical strain 060S
From the text: as §1

[28] = tested on: biofilm of reference and clinical strains of staphylococci (S. aureus); settings: for mean MBIC (initial values): average over 14 strains, polystyrene 96-well plates, not corrected
From the text: as §1

[29] = tested on: reference and clinical strains of staphylococci (S. aureus); settings: 24 h
From the text: as §1

[30] = tested on: S. aureus ATCC 6538; settings: ATCC 6538, reference strain
[31] = tested on: S. aureus ATCC 6538 biofilm; settings: ATCC 6538, reference strain
[32] = tested on: S. aureus ATCC 6538 biofilm; settings: ATCC 6538, reference strain; remark: listed apart in the source

ILRWPWWPWRRK-NH2 [Omiganan TFA^−]
IC50 [1]: 77.10 µg/mL | MBEC [2]: 32 µg/mL | MBIC [2]: 32 µg/mL | MIC [3]: 8 µg/mL | MBEC [4]: 128 µg/mL | MBIC [4]: 32 µg/mL | MIC [5]: 16 µg/mL | MBEC [6]: 32 µg/mL | MBIC [6]: 32 µg/mL | MIC [7]: 16 µg/mL | MBEC [8]: 32 µg/mL | MBIC [8]: 16 µg/mL | MIC [9]: 4 µg/mL | MBEC [10]: 64 µg/mL | MBIC [10]: 16 µg/mL | MIC [11]: 8 µg/mL | MBEC [12]: 16 µg/mL | MBIC [12]: 2 µg/mL | MIC [13]: 1 µg/mL | MBEC [14]: 32 µg/mL | MBIC [14]: 1 µg/mL | MIC [15]: 0.5 µg/mL | MBEC [16]: 64 µg/mL | MBIC [16]: 16 µg/mL | MIC [17]: 16 µg/mL | MBEC [18]: 32 µg/mL | MBIC [18]: 16 µg/mL | MIC [19]: 8 µg/mL | MBEC [20]: 16 µg/mL | MIC [21]: 1 µg/mL | MBEC [22]: 32 µg/mL | MBIC [22]: 16 µg/mL | MIC [23]: 8 µg/mL | MBEC [24]: 64 µg/mL | MBIC [24]: 32 µg/mL | MIC [25]: 16 µg/mL | MBEC [26]: 16 µg/mL | MBIC [26]: 2 µg/mL | MIC [27]: 2 µg/mL | mean MBEC (corrected values) ([28]; 24 h): 42.29 µg/mL | mean MBEC (initial values) ([28]; 24 h): 42.29 µg/mL | mean MBIC (initial values) [28]: 17.54 µg/mL | mean MBIC (corrected values) ([28]; biofilm of reference and clinical strains of staphylococci, 24 h): 17.54 µg/mL | mean MIC (corrected values) [29]: 7.75 µg/mL | mean MIC (initial values) [29]: 7.75 µg/mL | MIC [30]: 4 µg/mL | MBIC [31]: 32 µg/mL | MBEC [32]: 32 µg/mL

ILRWPWWPWRRK-NH2 [Omiganan AcO^−]
IC50 [1]: 73.72 µg/mL | MBEC [2]: 32 µg/mL | MBIC [2]: 16 µg/mL | MIC [3]: 8 µg/mL | MBEC [4]: 128 µg/mL | MBIC [4]: 32 µg/mL | MIC [5]: 16 µg/mL | MBEC [6]: 64 µg/mL | MBIC [6]: 32 µg/mL | MIC [7]: 16 µg/mL | MBEC [8]: 16 µg/mL | MBIC [8]: 16 µg/mL | MIC [9]: 4 µg/mL | MBEC [10]: 32 µg/mL | MBIC [10]: 8 µg/mL | MIC [11]: 8 µg/mL | MBEC [12]: 16 µg/mL | MBIC [12]: 1 µg/mL | MIC [13]: 1 µg/mL | MBEC [14]: 16 µg/mL | MBIC [14]: 1 µg/mL | MIC [15]: 0.5 µg/mL | MBEC [16]: 32 µg/mL | MBIC [16]: 16 µg/mL | MIC [17]: 8 µg/mL | MBEC [18]: 32 µg/mL | MBIC [18]: 16 µg/mL | MIC [19]: 8 µg/mL | MBEC [20]: 16 µg/mL | MIC [21]: 1 µg/mL | MBEC [22]: 16 µg/mL | MBIC [22]: 16 µg/mL | MIC [23]: 8 µg/mL | MBEC [24]: 64 µg/mL | MBIC [24]: 16 µg/mL | MIC [25]: 8 µg/mL | MBEC [26]: 16 µg/mL | MBIC [26]: 1 µg/mL | MIC [27]: 1 µg/mL | mean MBEC (initial values) ([28]; 24 h): 38.86 µg/mL | mean MBIC (initial values) [28]: 14.54 µg/mL | mean MIC (initial values) [29]: 6.82 µg/mL | MIC [30]: 8 µg/mL | MBIC [31]: 32 µg/mL | MBEC [32]: 64 µg/mL

KRRWPWWPWRLI-NH2 [Retro-omiganan AcO^−]
IC50 [1]: 23.66 µg/mL | MBEC [6]: 32 µg/mL | MBIC [6]: 32 µg/mL | MIC [7]: 16 µg/mL | MBEC [10]: 32 µg/mL | MBIC [10]: 16 µg/mL | MIC [11]: 16 µg/mL | MBEC [16]: 32 µg/mL | MBIC [16]: 16 µg/mL | MIC [17]: 16 µg/mL | MBEC [22]: 32 µg/mL | MBIC [22]: 16 µg/mL | MIC [23]: 16 µg/mL | MBEC [24]: 64 µg/mL | MBIC [24]: 32 µg/mL | MIC [25]: 16 µg/mL | mean MBEC (initial values) ([28]; 24 h): 32.00 µg/mL | mean MIC (initial values) [29]: 10.00 µg/mL
